The values that follow come from ChEMBL document CHEMBL5375976, “Discovery of Inhibitory Fragments That Selectively Target Spire2-FMN2 Interaction” (J Med Chem, 2023).

For orientation: ΔTm means the change in melting temperature against a reference sample.

This test addresses T1, Fermitin family homolog 2 (Homo sapiens) (UniProt Q96AC1).
T1 sequence (whole entry): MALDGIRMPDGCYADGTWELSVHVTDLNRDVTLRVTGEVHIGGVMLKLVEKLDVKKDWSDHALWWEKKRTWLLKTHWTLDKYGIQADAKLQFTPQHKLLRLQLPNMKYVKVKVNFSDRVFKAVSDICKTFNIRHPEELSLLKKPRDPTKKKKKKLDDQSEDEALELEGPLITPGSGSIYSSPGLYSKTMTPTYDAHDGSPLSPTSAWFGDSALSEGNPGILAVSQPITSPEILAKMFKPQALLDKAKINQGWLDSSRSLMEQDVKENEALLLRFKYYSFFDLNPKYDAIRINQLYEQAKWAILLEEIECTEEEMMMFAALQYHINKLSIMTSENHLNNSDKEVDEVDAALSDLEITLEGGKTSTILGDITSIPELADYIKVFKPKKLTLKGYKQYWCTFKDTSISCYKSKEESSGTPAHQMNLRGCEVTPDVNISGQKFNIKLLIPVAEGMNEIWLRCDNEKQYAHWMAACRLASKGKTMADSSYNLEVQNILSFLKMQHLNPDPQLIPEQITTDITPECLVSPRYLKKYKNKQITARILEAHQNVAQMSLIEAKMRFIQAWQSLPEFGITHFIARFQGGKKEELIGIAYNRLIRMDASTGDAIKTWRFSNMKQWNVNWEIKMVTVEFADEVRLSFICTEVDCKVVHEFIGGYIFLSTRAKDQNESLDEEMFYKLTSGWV
Description: Binding affinity to His6-tagged KIND2 (unknown origin) expressed in Escherichia coli BL21(DE3) assessed as change in melting temperature by DSF analysis

For `NCCNc1ccnc2cc(OCc3ccccc3)ccc12`, the ΔTm was determined as 0 °C.
